Consider 35 molecules from patent US20230242494A1, “MALONITRILE DERIVATIVES” (Hoffmann-La Roche Inc., priority 2020, published 2023).

Structures are written as SMILES.

Broadly, the IC50 is the concentration needed to halve the response being measured.

This experiment deals with T1, human cGAS (residues 161-522) (Homo sapiens, UniProt Q8N884).
T1 construct: human cGAS (residues 161-522); made in house
T1 sequence (Q8N884 161-522): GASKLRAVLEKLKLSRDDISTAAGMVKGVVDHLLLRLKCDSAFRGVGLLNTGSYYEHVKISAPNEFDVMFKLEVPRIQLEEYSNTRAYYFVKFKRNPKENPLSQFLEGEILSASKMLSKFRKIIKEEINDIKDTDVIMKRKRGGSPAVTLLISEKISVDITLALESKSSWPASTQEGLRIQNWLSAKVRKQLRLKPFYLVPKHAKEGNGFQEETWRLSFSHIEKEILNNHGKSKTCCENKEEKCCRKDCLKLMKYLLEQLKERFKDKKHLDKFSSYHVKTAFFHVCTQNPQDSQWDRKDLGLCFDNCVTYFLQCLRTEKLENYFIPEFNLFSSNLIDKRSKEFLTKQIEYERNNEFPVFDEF
Description: cGAS Activity Assay—Malachite Green. Format: biochemical. Particulars: recombinant purified human cGAS 25 nM; 80 μM ATP, 80 μM GTP, 100 nM ISD; 4 hour at RT; phosphate detection by Malachite Green. The method in brief:
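Human cGAS (161-522, 25 nM) in 20 mM TRIS pH 7.5, 5 mM MgCl2, 0.01% BSA with 80 μM ATP, 80 μM GTP and 100 nM ISD DNA, 4 h at RT. Pyrophosphate converted by PPase, phosphate read with Malachite Green at 620 nm; IC50 from 4-parameter fit of 16-point series.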
In the case of `Cc1oncc1/C(O)=C(\C#N)C(=O)Nc1ccc([S+]([O-])c2ccccc2)cn1` (centres unmarked) [Example 90, (Z)-2-cyano-3-hydroxy-3-(5-methylisoxazol-4-yl)-N-(5-(phenylsulfinyl)pyridin-2-yl)acrylamide], the IC50 amounted to 130 nM.

For `Cc1oncc1/C(O)=C(\C#N)C(=O)Nc1ccc(S(C)(=O)=O)cn1` [Example 91, (Z)-2-cyano-3-hydroxy-3-(5-methylisoxazol-4-yl)-N-(5-(methylsulfonyl)pyridin-2-yl)acrylamide], the IC50 was 100 nM.

Turning to `Cc1oncc1/C(O)=C(\C#N)C(=O)Nc1ncc(C(F)(F)F)cc1F` [Example 92], the IC50 amounted to 250 nM.

As to `Cc1oncc1/C(O)=C(\C#N)C(=O)Nc1ccc(S(=O)(=O)NC(C)(C)C)cn1` [Example 93, (Z)-N-(5-(N-(tert-butyl)sulfamoyl)pyridin-2-yl)-2-cyano-3-hydroxy-3-(5-methylisoxazol-4-yl)acrylamide], the IC50 worked out at 140 nM.

Consider `Cc1oncc1/C(O)=C(\C#N)C(=O)Nc1ncc(C(F)(F)F)cn1` [Example 94, (Z)-2-cyano-3-hydroxy-3-(5-methylisoxazol-4-yl)-N-(5-(trifluoromethyl)pyrimidin-2-yl)acrylamide], for which the IC50 is 90 nM.

As to `Cc1oncc1/C(O)=C(\C#N)C(=O)Nc1ccc(S(=O)(=O)c2ccccc2)cn1` [Example 95, (Z)-2-cyano-3-hydroxy-3-(5-methylisoxazol-4-yl)-N-(5-(phenylsulfonyl)pyridin-2-yl)acrylamide], the IC50 stood at 100 nM.

With `Cc1oncc1/C(O)=C(\C#N)C(=O)Nc1ncc(S(=O)(=O)N(C)C)cn1` [Example 96, (Z)-2-cyano-N-(5-(N,N-dimethylsulfamoyl)pyrimidin-2-yl)-3-hydroxy-3-(5-methylisoxazol-4-yl)acrylamide], the IC50 came to 70 nM.

As to `Cc1oncc1/C(O)=C(\C#N)C(=O)Nc1ncc(Sc2ccccc2)cn1` [Example 97, (Z)-2-cyano-3-hydroxy-3-(5-methylisoxazol-4-yl)-N-(5-phenylsulfanylpyrimidin-2-yl)prop-2-enamide], the IC50 came out at 210 nM.

Consider `CCOc1cnc(NC(=O)/C(C#N)=C(\O)c2cnoc2C)nc1` [Example 98, (Z)-2-cyano-N-(5-ethoxypyrimidin-2-yl)-3-hydroxy-3-(5-methylisoxazol-4-yl)acrylamide], for which the IC50 amounted to 80 nM.

In the case of `Cc1oncc1/C(O)=C(\C#N)C(=O)Nc1ncc(C(=O)N(C)c2ccccc2)cn1` [Example 99, 2-[[(Z)-2-cyano-3-hydroxy-3-(5-methylisoxazol-4-yl)prop-2-enoyl]amino]-N-methyl-N-phenyl-pyrimidine-5-carboxamide], the IC50 is 90 nM.

`Cc1oncc1/C(O)=C(\C#N)C(=O)Nc1ncc(C(=O)N(C)Cc2ccccc2)cn1` [Example 100, N-benzyl-2-[[(Z)-2-cyano-3-hydroxy-3-(5-methylisoxazol-4-yl)prop-enoyl]amino]-N-methyl-2-pyrimidine-5-carboxamide]: the IC50 was determined as 70 nM.

In the case of `Cc1oncc1/C(O)=C(\C#N)C(=O)Nc1nccc(OCCF)n1` [Example 101, (Z)-2-cyano-N-(4-(2-fluoroethoxy)pyrimidin-2-yl)-3-hydroxy-3-(5-methylisoxazol-4-yl)acrylamide], the IC50 was 120 nM.

With `Cc1oncc1/C(O)=C(\C#N)C(=O)Nc1ncc(CCc2ccccc2)cn1` [Example 102, (Z)-2-cyano-3-hydroxy-3-(5-methylisoxazol-4-yl)-N-(5-phenethylpyrimidin-2-yl)acrylamide], the IC50 was 150 nM.

Regarding `CCS(=O)(=O)c1cnc(NC(=O)/C(C#N)=C(\O)c2cnoc2C)nc1` [Example 103, (Z)-2-cyano-N-(5-(ethylsulfonyl)pyrimidin-2-yl)-3-hydroxy-3-(5-methylisoxazol-4-yl)acrylamide], the IC50 came to 40 nM.

As for `Cc1oncc1/C(O)=C(\C#N)C(=O)Nc1ccc(C(C)(C)c2ccccc2)cc1` [Example 104, (Z)-2-cyano-3-hydroxy-3-(5-methylisoxazol-4-yl)-N-(4-(2-phenylpropan-2-yl)phenyl)acrylamide], the IC50 is 3110 nM.

For the molecule `Cc1oncc1/C(O)=C(\C#N)C(=O)Nc1ncc(C(=O)Nc2ccccc2)cn1` [Example 105, 2-[[(Z)-2-cyano-3-hydroxy-3-(5-methylisoxazol-4-yl)prop-2-enoyl]amino]-N-phenyl-pyrimidin-5-carboxamide], the IC50 came to 150 nM.

Consider `Cc1oncc1/C(O)=C(\C#N)C(=O)Nc1ncc(C(=O)NCc2ccccc2)cn1` [Example 106, N-benzyl-2-[[(Z)-2-cyano-3-hydroxy-3-(5-methylisoxazol-4-yl)prop-2-enoyl]amino]pyrimidine-5-carboxamide], for which the IC50 turned out to be 50 nM.

`Cc1oncc1/C(O)=C(\C#N)C(=O)Nc1ncc(Br)cn1` [Example 107, (Z)-N-(5-bromopyrimidin-2-yl)-2-cyano-3-hydroxy-3-(5-methylisoxazol-4-yl)acrylamide]: the IC50 was 60 nM.

Turning to `Cc1oncc1/C(O)=C(\C#N)C(=O)Nc1nc(Cl)c(-c2ccccc2)c(NS(=O)(=O)c2ccc(Cl)cc2)n1` [Example 108, (Z)-N-(4-chloro-6-((4-chlorophenyl)sulfonamido)-5-phenylpyrimidin-2-yl)-2-cyano-3-hydroxy-3-(5-methylisoxazol-4-yl)acrylamide], the IC50 was 5010 nM.

In the case of `Cc1oncc1/C(O)=C(\C#N)C(=O)Nc1ccc(S(=O)(=O)Cc2ccccc2Cl)cn1` [Example 109, (Z)—N-(5-((2-chlorobenzyl)sulfonyl)pyridin-2-yl)-2-cyano-3-hydroxy-3-(5-methylisoxazol-4-yl)acrylamide], the IC50 was determined as 720 nM.

On to `COCCS(=O)(=O)c1cnc(NC(=O)/C(C#N)=C(\O)c2cnoc2C)nc1` [Example 110, (Z)-2-cyano-3-hydroxy-N-(5-((2-methoxyethyl)sulfonyl)pyrimidin-2-yl)-3-(5-methylisoxazol-4-yl)acrylamide], for which the IC50 came out at 60 nM.

Turning to `Cc1oncc1/C(O)=C(\C#N)C(=O)Nc1ncc(S(=O)(=O)c2ccccc2)cn1` [Example 111, (Z)-N-[5-(benzenesulfonyl)pyrimidin-2-yl]-2-cyano-3-hydroxy-3-(5-methylisoxazol-4-yl)prop-2-enamide], the IC50 is 20 nM.

Turning to `Cc1oncc1/C(O)=C(\C#N)C(=O)Nc1ncc([S+]([O-])c2ccccc2)cn1` (centres unmarked) [Example 112, (Z)-N-[5-(benzenesulfinyl)pyrimidin-2-yl]-2-cyano-3-hydroxy-3-(5-methylisoxazol-4-yl)prop-2-enamide], the IC50 was 20 nM.

In the case of `Cc1oncc1/C(O)=C(\C#N)C(=O)Nc1ccc(S(C)(=N)=O)cc1` (centres unmarked) [Example 113, (Z)-2-Cyano-3-hydroxy-3-(5-methylisoxazol-4-yl)-N-(4-(S-methylsulfonimidoyl)phenyl)acrylamide], the IC50 stood at 330 nM.

On to `Cc1oncc1/C(O)=C(\C#N)C(=O)Nc1ccc(S(=N)(=O)c2ccccc2)cc1` (centres unmarked) [Example 114, (Z)-2-cyano-3-hydroxy-3-(5-methylisoxazol-4-yl)-N-(4-(phenylsulfonimidoyl)phenyl)acrylamide], for which the IC50 worked out at 120 nM.

Turning to `Cc1oncc1/C(O)=C(\C#N)C(=O)Nc1ccc(S(C)(=O)=O)cc1` [Example 115, (Z)-2-cyano-3-hydroxy-3-(5-methylisoxazol-4-yl)-N-(4-methylsulfonylphenyl) prop-2-enamide], the IC50 turned out to be 180 nM.

For `Cc1oncc1/C(O)=C(\C#N)C(=O)Nc1ccc([S+](C)[O-])cc1` (centres unmarked) [Example 116, (Z)-2-cyano-3-hydroxy-3-(5-methylisoxazol-4-yl)-N-(4-methylsulfinylphenyl) prop-2-enamide], the IC50 was 380 nM.

On to `COCCN(C)S(=O)(=O)c1cnc(NC(=O)/C(C#N)=C(\O)c2cnoc2C)nc1` [Example 117, (Z)-2-Cyano-3-hydroxy-N-(5-(N-(2-methoxyethyl)-N-methylsulfamoyl)pyrimidin-2-yl)-3-(5-methylisoxazol-4-yl)acrylamide], for which the IC50 was 50 nM.

Take `COCCNS(=O)(=O)c1cnc(NC(=O)/C(C#N)=C(\O)c2cnoc2C)nc1` [Example 118, (Z)-2-cyano-3-hydroxy-N-(5-(N-(2-methoxy-ethyl)sulfamoyl)pyrimidin-2-yl)-3-(5-methylisoxazol-4-yl)acrylamide]: the IC50 was found to be 40 nM.

For `COCCN(C)S(=O)(=O)c1ccc(NC(=O)/C(C#N)=C(\O)c2cnoc2C)cc1` [Example 119, (Z)-2-Cyano-3-hydroxy-N-(4-(N-(2-methoxyethyl)-N-methylsulfamoyl)phenyl)-3-(5-methylisoxazol-4-yl)acrylamide], the IC50 worked out at 170 nM.

Consider `Cc1oncc1/C(O)=C(\C#N)C(=O)Nc1ccc(S(=O)(=O)N(C)CCN(C)C)cc1` [Example 120, (Z)-2-cyano-N-(4-(N-(2-(dimethylamino)ethyl)-N-methylsulfamoyl)phenyl)-3-hydroxy-3-(5-methylisoxazol-4-yl)acrylamide], for which the IC50 is 670 nM.

With `Cc1oncc1/C(O)=C(\C#N)C(=O)Nc1ccc(S(=O)(=O)c2ccc(C#N)cc2)cc1` [Example 121, (Z)-2-Cyano-N-(4-((4-cyanophenyl)sulfonyl)phenyl)-3-hydroxy-3-(5-methylisoxazol-4-yl)acrylamide], the IC50 was 380 nM.

For the molecule `Cc1oncc1/C(O)=C(\C#N)C(=O)Nc1ccc(S(=O)(=O)c2ccccc2C#N)cc1` [Example 122, (Z)-2-cyano-N-(4-((2-cyanophenyl)sulfonyl)phenyl)-3-hydroxy-3-(5-methylisoxazol-4-yl)acrylamide], the IC50 came to 130 nM.

Take `Cc1oncc1/C(O)=C(\C#N)C(=O)Nc1ccc(S(=O)(=O)c2cccnc2)cc1` [Example 123, (Z)-2-cyano-3-hydroxy-3-(5-methylisoxazol-4-yl)-N-(4-(pyridin-3-ylsulfonyl)phenyl) acrylamide]: the IC50 is 210 nM.

`COc1cnc(NC(=O)/C(C#N)=C(\O)c2cnoc2C)nc1-c1ccccc1` [Example 124, (Z)-2-cyano-3-hydroxy-N-(5-methoxy-4-phenylpyrimidin-2-yl)-3-(5-methylisoxazol-4-yl)acrylamide]: the IC50 is 170 nM.
